Experimental data published in US20240041971A1, “A PROCESS OF PREPARATION OF FLOUR MIX AND ITS USE FOR THE TREATMENT OF DIABETES” (priority 2020, published 2024).

Assays:
Assay type in all cases: in vivo, Rats
[1] = test system: Streptozotocin (STZ) induced type 1 diabetes (T1DM); assay: Plasma insulin level (ELISA) in STZ induced type 1 diabetes; conditions: 10 IU/kg subcutaneous
Procedure: The objective of the study is to evaluate the pharmaceutical preparation in Type-1 Diabetes Mellitus (T1DM) and to compare the efficacy in comparison to standard hypoglycemic agents as insulin. Experimental model: Streptozotocin (STZ) induced type 1 diabetes (T1DM). Dose: STZ (45 mg/kg for rats) for T1DM Route: STZ was administered intraperitoneally (i.p.). Pharmaceutical preparation was administered peroral (p.o.) in three doses. Animals: Rats of Wistar or Sprague Dawley strain weighing from 150-200 g of either sex. The animals were housed under optimal laboratory conditions, maintained on a natural (12 h) light and (12 h) dark cycle and have free access to food and water ad libitum. Animals were acclimatized to laboratory conditions before the tests. Study Design: Animals were divided into 8 groups of 10 animals in each group. • a) Group I: Control or vehicle treated group • b) Group II: Type 1 diabetic group • c) Group III: pharmaceutical preparation (90 mg/kg)+Diabetic animals • d) Group IV: pharmaceutical preparation (180 mg/kg)+Diabetic animals • e) Group V: pharmaceutical preparation (360 mg/kg)+Diabetic animals • f) Group VI: Satcol (60 mg/kg)+Diabetic animals • g) Group VII: pharmaceutical preparation (90 mg/kg)+Insulin (10IU)+Diabetic animals • h) Group VIII: Insulin (10IU)+Diabetic animals Drugs were administered for 28 days after confirmation of diabetes. Parameters to be evaluated: […]) Body weight, water and food intake was monitored weekly. • b) Blood Glucose Level: Glucose was estimated using diagnostic kits by GOD-POD method and the experiment was conducted following the manufacturer's instructions. • c) Oral Glucose Tolerance Test (OGTT): An oral glucose tolerance test was carried out in conscious rats. For this the rats was fasted overnight and glucose (2 g/kg b.w.) was given from 30% solution by oral gavage. Tail blood samples was collected before glucose load and sequentially for every half an hour after glucose load upto 90 minutes and was immediately analysed for glucose. • d) Measurement of Plasma Insulin Level: Insulin was estimated using insulin ELISA kit (LINCO) and the experiment was conducted following the manufacturer's instructions. It is a solid phase sandwich enzyme-linked immunosorbent assay (ELISA), which uses a microtitre plate reader at 450 nm. Concentrations of insulin were calculated from plotted standard curves. All results were expressed as Mean±SEM. The intergroup variation was measured by one-way analysis of variance (ANOVA) followed by Tukey's test. Statistical significance was considered at P<0.05. The statistical analysis was done using the SPSS Statistical Software version 16 (SPSS Inc. 233 South Wacker Drive, 11th Floor Chicago, IL 60606-6412).

[2] = test system: Streptozotocin (STZ) induced type 1 diabetes (T1DM); assay: Oral Glucose Tolerance Test (OGTT) in STZ induced type 1 diabetes; conditions: 10 IU/kg subcutaneous
Procedure: The objective of the study is to evaluate the pharmaceutical preparation in Type-1 Diabetes Mellitus (T1DM) and to compare the efficacy in comparison to standard hypoglycemic agents as insulin. Experimental model: Streptozotocin (STZ) induced type 1 diabetes (T1DM). Dose: STZ (45 mg/kg for rats) for T1DM Route: STZ was administered intraperitoneally (i.p.). Pharmaceutical preparation was administered peroral (p.o.) in three doses. Animals: Rats of Wistar or Sprague Dawley strain weighing from 150-200 g of either sex. The animals were housed under optimal laboratory conditions, maintained on a natural (12 h) light and (12 h) dark cycle and have free access to food and water ad libitum. Animals were acclimatized to laboratory conditions before the tests. Study Design: Animals were divided into 8 groups of 10 animals in each group. • a) Group I: Control or vehicle treated group • b) Group II: Type 1 diabetic group • c) Group III: pharmaceutical preparation (90 mg/kg)+Diabetic animals • d) Group IV: pharmaceutical preparation (180 mg/kg)+Diabetic animals • e) Group V: pharmaceutical preparation (360 mg/kg)+Diabetic animals • f) Group VI: Satcol (60 mg/kg)+Diabetic animals • g) Group VII: pharmaceutical preparation (90 mg/kg)+Insulin (10IU)+Diabetic animals • h) Group VIII: Insulin (10IU)+Diabetic animals Drugs were administered for 28 days after confirmation of diabetes. Parameters to be evaluated: The following parameters were evaluated at confirmation of diabetes and after 28 days of treatment. • a) Body weight, water and food intake was monitored weekly. • b) Blood Glucose Level: Glucose was estimated using diagnostic kits by GOD-POD method and the experiment was conducted following the manufacturer's instructions. • c) Oral Glucose Tolerance Test (OGTT): An oral glucose tolerance test was carried out in conscious rats. For this the rats was fasted overnight and glucose (2 g/kg b.w.) was given from 30% solution by oral gavage. […] for glucose. • d) Measurement of Plasma Insulin Level: Insulin was estimated using insulin ELISA kit (LINCO) and the experiment was conducted following the manufacturer's instructions. It is a solid phase sandwich enzyme-linked immunosorbent assay (ELISA), which uses a microtitre plate reader at 450 nm. Concentrations of insulin were calculated from plotted standard curves. All results were expressed as Mean±SEM. The intergroup variation was measured by one-way analysis of variance (ANOVA) followed by Tukey's test. Statistical significance was considered at P<0.05. The statistical analysis was done using the SPSS Statistical Software version 16 (SPSS Inc. 233 South Wacker Drive, 11th Floor Chicago, IL 60606-6412).

[3] = test system: Streptozotocin (STZ) induced type 1 diabetes (T1DM); assay: Streptozotocin (STZ) induced type 1 diabetes: plasma glucose, body weight, food intake, water intake, urine output; conditions: 10 IU/kg subcutaneous
Procedure: The objective of the study is to evaluate the pharmaceutical preparation in Type-1 Diabetes Mellitus (T1DM) and to compare the efficacy in comparison to standard hypoglycemic agents as insulin. Experimental model: Streptozotocin (STZ) induced type 1 diabetes (T1DM). Dose: STZ (45 mg/kg for rats) for T1DM Route: STZ was administered intraperitoneally (i.p.). Pharmaceutical preparation was administered peroral (p.o.) in three doses. Volume Administered: Rat—5 ml/kg Animals: Rats of Wistar or Sprague Dawley strain weighing from 150-200 g of either sex. The animals were housed under optimal laboratory conditions, maintained on a natural (12 h) light and (12 h) dark cycle and have free access to food and water ad libitum. Animals were acclimatized to laboratory conditions before the tests. […] Parameters to be evaluated: The following parameters were evaluated at confirmation of diabetes and after 28 days of treatment. • a) Body weight, water and food intake was monitored weekly. • b) Blood Glucose Level: Glucose was estimated using diagnostic kits by GOD-POD method and the experiment was conducted following the manufacturer's instructions. • c) Oral Glucose Tolerance Test (OGTT): An oral glucose tolerance test was carried out in conscious rats. For this the rats was fasted overnight and glucose (2 g/kg b.w.) was given from 30% solution by oral gavage. Tail blood samples was collected before glucose load and sequentially for every half an hour after glucose load upto 90 minutes and was immediately analysed for glucose. • d) Measurement of Plasma Insulin Level: Insulin was estimated using insulin ELISA kit (LINCO) and the experiment was conducted following the manufacturer's instructions. It is a solid phase sandwich enzyme-linked immunosorbent assay (ELISA), which uses a microtitre plate reader at 450 nm. Concentrations of insulin were calculated from plotted standard curves. All results were expressed as Mean±SEM. The intergroup variation was measured by one-way analysis of variance (ANOVA) followed by Tukey's test. Statistical significance was considered at P<0.05. The statistical analysis was done using the SPSS Statistical Software version 16 (SPSS Inc. 233 South Wacker Drive, 11th Floor Chicago, IL 60606-6412).

[4] = test system: Streptozotocin-nicotinamide induced Type-2 diabetes (T2DM); assay: Streptozotocin-nicotinamide induced Type-2 diabetes: Glycosylated Haemoglobin (HbA1c); conditions: 5 mg/kg oral gavage
Procedure: (§1) The objective of the study is to evaluate pharmaceutical preparation in Type-2 diabetes mellitus (T2DM) and to compare efficacy of these in comparison to standard hypoglycemic agent pioglitazone.
(§2) Experimental model: Streptozotocin-nicotinamide induced Type-2 diabetes (T2DM): Single intraperitoneal injection of nicotinamide and streptozotocin was administered. Dose: STZ (45 mg/kg for rats)+Nicotinamide (230 mg/kg for rats) for T2DM pharmaceutical preparation (45.90 & 180 mg/kg). Route: STZ & Nicotinamide were administered intraperitoneally (i.p.). Pharmaceutical preparation & pioglitazone were administered per orally (oral gavage). Volume Administered: Rat—5 mL/kg Animals: Rats of Wistar strain weighing from 150-200 g of either sex used for the study. The animals were housed under optimal laboratory conditions, maintained on a natural (12 h) light and (12 h) dark cycle and had free access to food and water ad libitum. Animals were acclimatized to laboratory conditions before the tests. Study Design: Animals were divided into 6 groups of 5-8 animals in each group: • a) Group I: Control or vehicle treated group • b) Group II: Type 2 diabetic group • c) Group III: Diabetic animals+pharmaceutical preparation (45 mg/kg) • d) Group IV: Diabetic animals+pharmaceutical preparation (90 mg/kg) • e) Group V: Diabetic animals +pharmaceutical preparation (180 mg/kg) • f) Group VI: Diabetic animals+Pioglitazone (5 mg/kg)
(§3) Pharmaceutical preparation was administered after confirmation of diabetes for 28 days.
(§4) Parameters to be evaluated: The following parameters were evaluated after confirmation of diabetes on day 1, 7, 14, 21 and 28 days. • a) Body weight, water and food intake was monitored. • b) Blood Glucose Level: Glucose was estimated using diagnostic kits by GOD-POD method and the experiment was conducted following the manufacturer's instructions. • c) Estimation of Glycosylated Haemoglobin (HbA1c): HbA1c is a good indicator of protein glycosylation. Excess of glucose conjugates with proteins to form glycosylated moieties. It was estimated by ion-resin method using commercial kits.

[5] = test system: Streptozotocin-nicotinamide induced Type-2 diabetes (T2DM); assay: Streptozotocin-nicotinamide induced Type-2 diabetes: plasma glucose; conditions: 5 mg/kg oral gavage
Procedure: as §1, §2, §3
as §4, with “[…])” for “following parameters were evaluated after confirmation of diabetes on day 1, 7, 14, 21 and 28 days. • a)”

Insulin
Percentage Change in plasma insulin ([1]; Day 1): 0% | Percentage Change in plasma insulin ([1]; Day 7): −42% | Percentage Change in plasma insulin ([1]; Day 14): −39% | Percentage Change in plasma insulin ([1]; Day 21): −37% | Percentage Change in plasma insulin ([1]; Day 28): −34% | OGTT Mean Plasma Glucose ([2]; 0.5 hour): 389 ± 95.77 mg/dL | OGTT Mean Plasma Glucose ([2]; 2.0 hour): 315 ± 102.13 mg/dL | OGTT Mean Plasma Glucose ([2]; 4.0 hour): 311 ± 217.52 mg/dL | OGTT Mean Plasma Glucose ([2]; 8.0 hour): 233 ± 29.73 mg/dL | Mean Plasma Glucose ([3]; 6th Week): 226 ± 12.4 mg/dL | Mean Plasma Glucose ([3]; 10th Week): 233 ± 16.0 mg/dL | Food Intake ([3]; Day 1): 21 ± 0.66 gm | Mean Body Weight ([3]; Day 1): 278 ± 3.7 gm | Mean Plasma Glucose ([3]; Day 1): 352 ± 42.4 mg/dL | Urine Volume ([3]; Day 1): 9 ± 0.63 mL | Water Intake ([3]; Day 1): 9 ± 0.95 mL | Food Intake ([3]; Day 7): 23 ± 0.43 gm | Mean Body Weight ([3]; Day 7): 277 ± 4.4 gm | Mean Plasma Glucose ([3]; Day 7): 249 ± 5.7 mg/dL | Urine Volume ([3]; Day 7): 16 ± 1.91 mL | Water Intake ([3]; Day 7): 14 ± 0.85 mL | Food Intake ([3]; Day 14): 27 ± 0.58 gm | Mean Body Weight ([3]; Day 14): 280 ± 3.9 gm | Mean Plasma Glucose ([3]; Day 14): 222 ± 14.1 mg/dL | Water Intake ([3]; Day 14): 20 ± 0.86 mL | Food Intake ([3]; Day 21): 30 ± 0.56 gm | Mean Body Weight ([3]; Day 21): 279 ± 4.5 gm | Mean Plasma Glucose ([3]; Day 21): 233 ± 13.3 mg/dL | Urine Volume ([3]; Day 21): 26 ± 3.61 mL | Water Intake ([3]; Day 21): 25 ± 2.77 mL | Food Intake ([3]; Day 28): 34 ± 0.93 gm | Mean Body Weight ([3]; Day 28): 279 ± 4.9 gm | Mean Plasma Glucose ([3]; Day 28): 211 ± 8.6 mg/dL | Urine Volume ([3]; Day 28): 26 ± 4.43 mL | Water Intake ([3]; Day 28): 31 ± 3.08 mL

CCc1ccc(CCOc2ccc(CC3SC(=O)NC3=O)cc2)nc1 (stereo not drawn) [Pio, Pioglitazone]
Glycosylated Hemoglobin ([4]; Day 1): 6.66 | Glycosylated Hemoglobin ([4]; Day 7): 10.78 | Glycosylated Hemoglobin ([4]; Day 14): 9.67 | Glycosylated Hemoglobin ([4]; Day 21): 8.44 | Glycosylated Hemoglobin ([4]; Day 28): 7.96 | Mean Plasma Glucose ([5]; Day 3): 144 mg/dL | Mean Plasma Glucose ([5]; Day 7): 149 mg/dL | Mean Plasma Glucose ([5]; Day 14): 141 mg/dL | Mean Plasma Glucose ([5]; Day 21): 132 mg/dL | Mean Plasma Glucose ([5]; Day 28): 126 mg/dL
